Data as given in article PMC12426469, “A Covalent and Modulable Inhibitor of the Tubulin‐Microtubule System: Insights Into the Mechanism of Cacalol” (Chemical Biology & Drug Design, 2025).

Target: T1, α-tubulin (Sus scrofa, UniProt P02550)
T1 construct: gene TUBA1A; purified porcine brain α,β-tubulin; modified peptide 340SIQFVDWCPTGFK352 of α-tubulin; with β-tubulin
Assay: LC-MS of trypsin-digested tubulin showing covalent adduct; IC50 from in vitro tubulin polymerization assay
Format: biochemical

T1 sequence (P02550 whole entry): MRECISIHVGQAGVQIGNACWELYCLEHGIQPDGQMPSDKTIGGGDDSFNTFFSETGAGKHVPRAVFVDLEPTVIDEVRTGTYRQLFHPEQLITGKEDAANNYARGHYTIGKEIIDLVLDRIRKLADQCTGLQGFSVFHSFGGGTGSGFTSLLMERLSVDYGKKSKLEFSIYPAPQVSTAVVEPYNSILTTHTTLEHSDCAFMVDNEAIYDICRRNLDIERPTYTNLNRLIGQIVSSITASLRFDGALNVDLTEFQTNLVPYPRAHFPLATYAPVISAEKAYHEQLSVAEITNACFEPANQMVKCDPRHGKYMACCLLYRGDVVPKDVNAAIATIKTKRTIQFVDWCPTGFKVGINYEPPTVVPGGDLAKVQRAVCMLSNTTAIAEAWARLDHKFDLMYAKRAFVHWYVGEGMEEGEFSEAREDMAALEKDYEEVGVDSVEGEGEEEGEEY
T1 sequence (P02554 whole entry partner): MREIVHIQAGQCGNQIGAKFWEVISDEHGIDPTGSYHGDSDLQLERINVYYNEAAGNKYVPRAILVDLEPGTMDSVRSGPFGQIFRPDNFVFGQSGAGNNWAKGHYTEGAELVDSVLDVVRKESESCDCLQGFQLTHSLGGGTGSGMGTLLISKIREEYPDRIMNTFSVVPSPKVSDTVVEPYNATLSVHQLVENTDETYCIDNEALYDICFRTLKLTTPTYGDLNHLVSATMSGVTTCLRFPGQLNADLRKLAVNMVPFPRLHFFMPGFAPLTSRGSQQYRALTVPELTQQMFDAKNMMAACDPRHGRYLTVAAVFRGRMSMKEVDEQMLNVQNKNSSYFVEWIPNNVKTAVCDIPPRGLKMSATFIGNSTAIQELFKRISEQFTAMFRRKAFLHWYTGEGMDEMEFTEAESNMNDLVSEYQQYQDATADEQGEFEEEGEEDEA

## C=C1C2=C(CCC[C@@H]2C)C(=O)c2occ(C)c21 [compound 2, (S)‐3,5‐Dimethyl‐4‐Methylene‐5,6,7,8‐Tetrahydronaphtho[2,3‐b]Furan‐9(4H )‐One]
  IC50: 43 µM
